“And” between values parts separate entries of the source, which are not always exact repeats. Equal entries are not always repeated. “Also recorded” adds a separate entry of the source.
Legend:
[1] = molecular target: T1, AChE (Tetronarce californica, UniProt P04058); experiment: AChE sensing: fluorescence response of TOPI sensors; assay type: binding; settings: 100 nM sensor, 90 nM AChE
T1 construct: gift from Prof; Israel Silman Lab (Weizmann Institute of Science)
Procedure: Fluorescence values were recorded immediately after addition of the proteins (FIGS. 12a and 13a).

[2] = molecular target: T1, AChE; experiment: AChE kinetic measurements (Ellman method); assay type: biochemical; settings: for inhibition of AChE activity: 8 pM AChE, sensor 36 50 nM, sensor 37 2 μM
Procedure: The AChE activity was measured spectrophotometrically using 5,5′-dithiobis(2-nitrobenzoic acid) (DTNB) and acetylthiocholine iodide as substrates, in phosphate buffer (50 mM, pH 8.0). […] The final concentrations of AChE, DTNB, and acetylthiocholine iodide were 8 pM, 0.4 mM, and 0.4 mM, respectively.

[3] = molecular target: T2, GST-A1-1 (Homo sapiens, UniProt P08263); experiment: GST sensing: fluorescence response to GST-A1-1; assay type: binding; settings: 100 nM sensor, 90 nM isozyme
T2 construct: purchased Oxford Biomedical Research (a second source is given: Israel Structural Proteomics Center, recombinant)
T2 sequence (P08263 2-222 limits assumed): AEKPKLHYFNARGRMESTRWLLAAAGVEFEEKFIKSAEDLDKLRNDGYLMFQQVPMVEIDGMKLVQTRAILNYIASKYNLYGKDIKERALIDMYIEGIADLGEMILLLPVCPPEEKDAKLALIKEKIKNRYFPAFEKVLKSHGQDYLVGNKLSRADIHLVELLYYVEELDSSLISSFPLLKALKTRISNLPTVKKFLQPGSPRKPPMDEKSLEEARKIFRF
Procedure: (§1) The most efficient TOPI sensors were identified (FIG. 12) by measuring the fluorescence of the six sensors (100 nM) in the absence and presence of their targets (90 nM) (FIG. 13).
(§2) Based on the obtained binding constants (FIG. 15), a concentration of 100 nM sensor was chosen for GST sensing. This concentration should ensure strong binding and a high S/N ratio.

[4] = molecular target: T3, GST-M1-1 (Homo sapiens, UniProt P09488); experiment: GST sensing: fluorescence response to GST-M1-1; assay type: binding; settings: 100 nM sensor
T3 construct: purchased Oxford Biomedical Research (a second source is given: Israel Structural Proteomics Center, recombinant)
T3 sequence (P09488 2-218 limits assumed): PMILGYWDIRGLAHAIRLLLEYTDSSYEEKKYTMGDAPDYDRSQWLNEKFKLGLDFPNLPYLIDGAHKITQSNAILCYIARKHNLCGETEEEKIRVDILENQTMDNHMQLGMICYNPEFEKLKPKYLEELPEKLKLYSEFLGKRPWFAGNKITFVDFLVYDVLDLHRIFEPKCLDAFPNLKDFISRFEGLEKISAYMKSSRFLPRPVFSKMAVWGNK
Procedure: as §1, §2
Two different mixtures of GST isoforms were prepared: one that contained all the GST isoforms (20 nM of each GST, in total 160 nM) (A1-1k2-2, P1-1, M1-1, T1-1, O1-1, Z1-1, and K1-1) and the second mixture contained all the GST isoforms except GST-M1-1.

[5] = molecular target: T4, GST-P1-1 (Homo sapiens, UniProt P09211); experiment: GST sensing: fluorescence response to GST-P1-1; assay type: binding; settings: 100 nM sensor
T4 construct: purchased Oxford Biomedical Research (a second source is given: Israel Structural Proteomics Center, recombinant)
Procedure: as §1, §2

[6] = molecular target: T4, GST-P1-1; experiment: Fluorescence binding study, dissociation constant with GST-P1-1; settings: fluorescence titration, phosphate buffer 5 mM pH 6.5; read-out: approximate dissociation constant Kd, GST-P1-1
Procedure: The approximate dissociation constants were determined for GST-M1-1 and GST-P1-1. For these experiments, the concentration of the sensor was chosen according to the enzymatic assays (Ki values, FIG. 18, 19). It was chosen to be lower than the Ki (expected Kd), but such that would also generate a detectable and reproducible emission signal in the plate reader. […] The data were analyzed using Graphpad Prism 6.0 and fitted to the equation: Y=Bmax·X/(kd+X) where Bmax is the maximum binding and X is the concentration of protein.

[7] = molecular target: T5, GST-A2-2 (Homo sapiens, UniProt P09210); experiment: GST sensing: fluorescence response to GST-A2-2; assay type: binding; settings: 100 nM sensor, 90 nM isozyme
T5 construct: purchased Oxford Biomedical Research (a second source is given: Israel Structural Proteomics Center, recombinant)
T5 sequence (P09210 2-222 limits assumed): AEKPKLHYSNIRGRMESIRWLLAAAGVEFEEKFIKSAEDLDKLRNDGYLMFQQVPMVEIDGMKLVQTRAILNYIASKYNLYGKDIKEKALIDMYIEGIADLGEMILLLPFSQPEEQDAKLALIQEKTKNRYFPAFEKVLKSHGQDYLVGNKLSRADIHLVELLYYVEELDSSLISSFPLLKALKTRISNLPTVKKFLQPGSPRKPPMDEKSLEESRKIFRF
Procedure: as §1, §2

[8] = molecular target: T5, GST-A2-2; experiment: GST kinetic measurements and inhibitory constants (CDNB/GSH), GST-A2-2; assay type: biochemical; settings: Morrison fit; GSH 3 mM, CDNB 1.5 mM; read-out: approximate inhibition constant Ki, GST-A2-2
Procedure: (§3) (FIGS. 16- and 19). The concentrations of different GSTs, GSH, and CDNB were 20 nM, 350 μM, and 700 μM, respectively. The GST activity was measured spectrophotometrically using chloro-2,4-dinitrobenzene (CDNB) and GSH as substrates, in phosphate buffer (10 mM, pH 6.5). In a typical experiment, GST and sensors 14 or 140 were incubated for 10 min at 25° C. and then GSH and CDNB were subsequently added. The formation of S-(2,4-dinitrophenyl)-glutathione was monitored using the microplate reader at λ=340 nm. […] The concentrations of GSH and CDNB were 3 mM and 1.5 mM, respectively. The Km values were determined using 20 nM of each GST isoform, 3 mM GSH, and variable CDNB concentrations (50 μM-2 mM). Data were fit to the Michaelis-Menten equation using Sigmaplot version 12.0 statistical software (Systat) to obtain the Km values.
(§4) The data were analyzed using Graphpad Prism 6.0 and fitted to the Morrison equation for tight binding substrates (FIG. 18 and FIG. 19(b,c)).
(§5) [formula] where Y is the enzyme activity, X is different concentrations of inhibitor (compound 14 or 140), E is the enzyme concentration, S is the concentration of substrate, Km is the Michaelis-Menten constant determined in an experiment without inhibitor, and V0 is the initial velocity.

[9] = molecular target: T4, GST-P1-1; experiment: GST kinetic measurements and inhibitory constants (CDNB/GSH), GST-P1-1; assay type: biochemical; settings: Morrison fit; GSH 3 mM, CDNB 1.5 mM; read-out: approximate inhibition constant Ki, GST-P1-1
Procedure: as §3, §4, §5

[10] = tested on: dsDNA; experiment: Fluorescence response to double-stranded DNA; assay type: binding; settings: for fluorescence response to addition of dsDNA (FIG. 21e): 100 nM sensor or TO, 400 nM dsDNA, phosphate buffer 5 mM pH 6.5
Procedure: Different 10 derivatives (Table 3) were incubated with increasing concentrations of double-stranded DNA and compared their fluorescence emission prior to and after their incubation in PBS buffer, pH=6.5 (FIG. 9).

[11] = molecular target: avidin (Av) (Gallus gallus, UniProt P02701); experiment: Av sensing: fluorescence response of TOPI sensors; assay type: binding; settings: 100 nM sensor, 90 nM Av; for enhancement in fluorescence emission upon addition of Av: phosphate buffer 15 mM pH 7.3
Procedure: as §1
(§6) Fluorescence values were recorded immediately after addition of the proteins (FIGS. 12d and 13b).

[12] = molecular target: streptavidin (SAv) (Streptomyces avidinii, UniProt P22629); experiment: SAv sensing: fluorescence response of TOPI sensors; assay type: binding; settings: 100 nM sensor, 90 nM SAv
Procedure: as §1, §6

[13] = molecular target: T3, GST-M1-1; experiment: Displacement (inhibitor screening) assay with sensor 14-GST-M1-1 complex; assay type: binding; settings: 50 μM drug, sensor 14 90 nM, GST M1-1 90 nM
Procedure: A possible advantage of such systems, however, is that they abrogate the need for using labelled substrates and following the reaction kinetics. Such sensors could, therefore, complement other label-free enzyme assays that rely on indicator displacement mechanisms.
The sensor 14-GST-M1-1 complex was treated with a random library of known drugs.

[14] = tested on: healthy MCF-10A cells; experiment: Live cell fluorescence imaging, MCF-10A; assay type: cell-based; settings: 2 μM
[15] = tested on: MDA-MB-231 cancer cells, overexpressing GST-P1-1; experiment: Live cell fluorescence imaging, MDA-MB-231; assay type: cell-based; settings: 2 μM, 15 minutes at 37° C.
Procedure: GST-P1-1 is a cytosolic protein, whereas DNA is located in the nucleouse.
MDA-MB-231 cells were maintained in RPMI supplemented with 10% FBS, L-glutamine, and antibiotics. […] Cell images were analyzed using imageJ.

T1 sequence (P04058 22-564): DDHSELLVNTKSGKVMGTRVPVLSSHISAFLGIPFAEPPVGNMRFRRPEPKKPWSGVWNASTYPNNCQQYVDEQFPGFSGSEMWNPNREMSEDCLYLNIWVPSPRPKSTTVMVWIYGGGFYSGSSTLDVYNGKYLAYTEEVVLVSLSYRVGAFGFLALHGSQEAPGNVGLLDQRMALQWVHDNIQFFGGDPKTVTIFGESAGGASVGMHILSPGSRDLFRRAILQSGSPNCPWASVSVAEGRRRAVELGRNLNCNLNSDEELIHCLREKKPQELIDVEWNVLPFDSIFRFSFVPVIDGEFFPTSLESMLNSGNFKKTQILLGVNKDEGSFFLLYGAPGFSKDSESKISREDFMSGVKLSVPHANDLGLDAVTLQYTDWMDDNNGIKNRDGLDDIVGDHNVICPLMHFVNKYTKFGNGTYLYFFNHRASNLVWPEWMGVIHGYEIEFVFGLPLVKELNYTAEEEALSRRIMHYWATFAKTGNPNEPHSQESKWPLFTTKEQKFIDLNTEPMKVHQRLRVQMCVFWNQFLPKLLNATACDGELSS
Chain of streptavidin (SAv) (P22629 25-183): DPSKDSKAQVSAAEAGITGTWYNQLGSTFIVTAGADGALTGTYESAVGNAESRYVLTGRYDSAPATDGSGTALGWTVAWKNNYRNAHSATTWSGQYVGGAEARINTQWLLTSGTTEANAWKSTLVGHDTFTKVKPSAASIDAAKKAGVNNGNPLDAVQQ
T4 sequence (P09211 2-210 limits assumed): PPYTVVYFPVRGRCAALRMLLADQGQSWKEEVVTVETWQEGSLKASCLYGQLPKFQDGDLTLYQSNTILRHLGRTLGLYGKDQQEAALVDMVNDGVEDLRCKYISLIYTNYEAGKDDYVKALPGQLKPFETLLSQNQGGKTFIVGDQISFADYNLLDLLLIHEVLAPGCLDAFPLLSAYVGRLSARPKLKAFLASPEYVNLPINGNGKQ
Chain of avidin (Av) (P02701 25-152): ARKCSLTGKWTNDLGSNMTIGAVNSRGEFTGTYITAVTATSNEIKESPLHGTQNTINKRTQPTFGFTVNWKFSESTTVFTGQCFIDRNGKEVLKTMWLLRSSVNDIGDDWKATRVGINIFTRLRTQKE

`O=C(CCN1C=C/C(=C\c2sc3ccccc3[n+]2CCC(=O)NCCCCCCNc2c3c(nc4ccccc24)CCCC3)c2ccccc21)NCCCCCCNc1c2c(nc3ccccc13)CCCC2.[I-]` [sensor 36] was tested, and the “detection of AChE” value [1] was “could detect AChE”, the “enhancement in fluorescence emission upon addition of AChE” value ([1]; phosphate buffer 20 mM pH 8) was 22 fold and the “inhibition of AChE activity” value [2] was “strong bivalent inhibitor; also recorded: full inhibition at low nanomolar concentration”. The Ki ([2]; competitive inhibition fit, acetylthiocholine iodide substrate, read-out: approximate inhibition constant Ki, AChE) was 0.32 nM and 0.31 nM.
`O=C(CCN1C=C/C(=C\c2sc3ccccc3[n+]2CCC(=O)NCCNc2c3c(nc4ccccc24)CCCC3)c2ccccc21)NCCNc1c2c(nc3ccccc13)CCCC2.[I-]` [sensor 37] was tested, and the “detection of AChE” value [1] was “could detect AChE” and the “inhibition of AChE activity” value [2] was “inhibited the AChE, activity only at 2 μM”.
In the case of `C=C(CC)C(=O)c1ccc(OCC(=O)NCCCn2cc(CNC(=O)OCCCN3C=C/C(=C\c4sc5ccccc5[n+]4CCCOC(=O)NCc4cn(CCCNC(=O)COc5ccc(C(=O)C(=C)CC)c(Cl)c5Cl)nn4)c4ccccc43)nn2)c(Cl)c1Cl` [sensor 14], the “fluorescence detection of GST-A1-1” value [3] is reported as “could not be detected”, the “fluorescence enhancement in the presence of GST-M1-1” value ([4]; 90 nM GST-M1-1, phosphate buffer 5 mM pH 6.5, recorded immediately) is reported as 55 fold and the “detection of GST-M1-1 in a mixture of GST isozymes” value ([4]; GST-M1-1 20 nM plus seven additional GSTs 20 nM each) is reported as “selective detection of GST-M1-1 in a mixture of isoforms”. The “time course of emission in the presence of GST-P1-1” value ([5]; 90 nM GST P1-1, phosphate buffer 5 mM pH 6.5) was “slowly increased over a period of 2 hours”, the Kd [6] was 38 nM and the “fluorescence detection of GST-A2-2” value [7] was “could not be detected”. The Ki [8] was 20 nM, the Ki [9] was 49 nM and the “fluorescence response to addition of dsDNA (FIG. 21e)” value (“fluorescence response to addition” for short) [10] was “negligible fluorescence responses; also recorded: did not exhibit any change in its fluorescence at 540 nm”. The “change in fluorescence upon addition of dsDNA (Example 3)” value ([10]; 500 nM TO derivative, 100-900 nM dsDNA, PBS pH 6.5, emission 530 nm) was “did not exhibit any change in its fluorescence at 530 nm”.
For `O=C(CCCCC1SCC2NC(=O)NC21)NCCNC(=O)CCN1C=C/C(=C\c2sc3ccccc3[n+]2CCC(=O)NCCNC(=O)CCCCC2SCC3NC(=O)NC32)c2ccccc21.[I-]` (centres unmarked) [sensor 35], the “fluorescence response to Av” value [11] was “strongly”, the “enhancement in fluorescence emission upon addition of Av” value [11] was 7 fold and the “fluorescence response to SAv” value [12] was “weakly; also recorded: hardly detected”.
With `CCCCCCSC[C@H](NC(=O)CC[C@H](N)C(=O)O)C(=O)NCC(=O)O` [s-hexyl GSH] the “displacement of sensor 14 from GST-M1-1 (reduction in emission)” value [13] was “selective identification”.
In the case of `C=C(CC)C(=O)c1ccc(OCC(=O)O)c(Cl)c1Cl` [EA, Ethacrynic acid], the “displacement of sensor 14 from GST-M1-1 (reduction in emission)” value [13] is reported as “selective identification”.
For `O=C(CCCCC1SCC2NC(=O)NC21)NCCOCCOCCNC(=O)CCN1C=C/C(=C\c2sc3ccccc3[n+]2CCC(=O)NCCOCCOCCNC(=O)CCCCC2SCC3NC(=O)NC32)c2ccccc21.[I-]` (centres unmarked) [sensor 34], the “fluorescence response to Av” value [11] was “strongly”, the “enhancement in fluorescence emission upon addition of Av” value [11] was 16 fold and the “fluorescence response to addition” value [10] was “negligible fluorescence responses”. The “fluorescence response to SAv” value [12] was “weakly; also recorded: hardly detected”.
In the case of `C=C(CC)C(=O)c1ccc(OCC(=O)NCCNC(=O)CCN2C=C/C(=C\c3sc4ccccc4[n+]3CCC(=O)NCCNC(=O)COc3ccc(C(=O)C(=C)CC)c(Cl)c3Cl)c3ccccc32)c(Cl)c1Cl` [sensor 140, (E)-3-(3-((2-(2-(2,3-dichloro-4-(2-methylenebutanoyl)phenoxy)acetamido)ethyl)amino)-3-oxopropyl)-2-((1-(3-((2-(2-(2,3-dichloro-4-(2-methylenebutanoyl)phenoxy)acetamido)ethyl)amino)-3-oxopropyl)quinolin-4(1H)-ylidene)methyl)benzoidithiazol-3-ium iodide], the “emission signal in MCF-10A cells” value [14] is reported as “much weaker emission signal”, the “turn-on fluorescence signal in the presence of GST-P1-1” value ([5]; 90 nM GST-P1-1, after 30 min incubation) is reported as 33 fold and the Kd [6] is reported as 29 nM. For the same compound, the “fluorescence response to addition” value [10] was “negligible fluorescence responses” and the “localization of fluorescence in live MDA-MB-231 cells” value [15] was “distributed within the cell”.
For `CN1C(=Cc2cc[n+](C)c3ccccc23)Sc2ccccc21` [TO, Thiazole Orange, reference compound], the “fluorescence response to addition” value [10] was “strong fluorescence signal” and the “localization of fluorescence in live MDA-MB-231 cells” value [15] was “strong green emission mainly from the nucleus”.
